According to patent US9932556B2, “Method for in vitro differentiation of blood circulating cells into neuronal-like cells and applications thereof” (Centre National de la Recherche Scientifique (CNRS), priority 2013, dated 2018):
Read-outs that look alike come from different tables or passages of the source.

Tests used:
pluripotent macrophages [1] = experiment: in vitro differentiation of monocytes-derived pluripotent macrophages into neuronal-like cells; settings: for effect on cells of increased concentration or number of doses: concentration increased above the recommended ones, or number of doses increased
Description: (§1) Isolated monocytes were centrifuged and resuspended in DMEM/10% FBS at a concentration of 550 cells/ml. M-CSF (Macrophage colony-stimulating factor) was added to resuspended cells at a concentration of 1:2000 with a stock solution at 0.1 mg/ml.
(§2) 1.2 million monocytes were plated per each 9.6 cm^2 well of a 6-well plate, 550,000 monocytes per each 3.1 cm^2 well of a 12-well plate, and 6 million monocytes per each 25 cm^2 flask. To ensure that monocytes became confluent and evenly distributed, and thus maintained a good differentiation rate, flasks and plates remained horizontal throughout the protocol, plating was done slowly by gently releasing monocytes from the pipette. Plated cells were left at room temperature for at least 15 min so that cells became fully attached to the surface of the plates or flasks, and subsequently incubated at 37° C. with 5% CO2 until day 4.
(§3) Once the tubes of steps e) and f) were at 37° C., the growth factor BHA (butylated hydroxyanizole) was added to the culture medium of monocytes at a final concentration of 50 nM, as follows: • g) adding 10 μl of 100 mM BHA (0.0089 grams of BHA+500 μL ethanol) to the 10 ml of DMEM/10% FBS of step e), thereby obtaining a 100 μM BHA/DMEM solution. Then diluting 10 μl of this 100 μM solution with a further 10 ml of DMEM/10% FBS heated at 37° C., thereby obtaining a 100 nM BHA/DMEM solution; • h) discarding the medium of the 6- and 12-well plates containing the monocytes isolated from the same subject as the PBMCs of step b); • i) adding the BHA/DMEM solution and the conditioned medium to each well of the plates in a 1:1 ratio, i.e.: • 1.5 ml of the 100 nM BHA/DMEM of step g) and 1.5 ml of the PBMCs conditioned medium of step f), for each well of a 6-well plate, and • 1 ml of the 100 nM BHA/DMEM of step g) and 1 ml of the PBMCs conditioned medium of step f), for each well of a 12-well plate; • j) incubating the plates at 37° C. with 5% CO2 until day 10. […]

pluripotent macrophages [2] = system: pluripotent macrophages
Description: as §1, §2, §3

Molecule	effect on cells of increased concentration or number of doses (pluripotent macrophages [1])	other results
COc1ccc(O)c(C(C)(C)C)c1 [BHA, Butylated hydroxyanisole]	damaged the cells	
CC1=C(/C=C/C(C)=C/C=C/C(C)=C/C(=O)O)C(C)(C)CCC1 [RA, Retinoic Acid]	damaged the cells	
IGF-1: Recombinant human Insulin Growth Factor-1 (Peprotech)		effect on cells of increased concentration or number of doses (pluripotent macrophages [2]): damaged the cells
IGF-2: Insulin growth factor-2, exogenous factor tested as replacement		cell viability (pluripotent macrophages [1]; replacing IGF-1 by this factor): did not improve cell viability
